# Source: US12421210B2, “Fused bicyclic heterocycles as therapeutic agents” (NEW YORK UNIVERSITY, priority 2018, dated 2025)
# Target: human NAMPT enzyme (His-hNAMPT) (Homo sapiens (Human), UniProt P43490)
# Experiment: NAMPT enzymatic inhibition assay (fluorescence, NADH product)
# Assay type: biochemical
# Details: [BPS]; read-out: NAMPT IC50 (μM) [BPS]
# Procedure: The compounds were then diluted 20 fold in an intermediate dilution to 5% DMSO and water. Finally 10 μL of each compound was added to the assay plate, in duplicate, with highest concentration at 30 μM and the lowest at 0.001 μM in a final volume of 50 μL and 1% DMSO concentration. Each assay also tested, in parallel, two reference compounds, FK866 and GMX1778, with highest concentration at 10 μM and lowest at 0.0003 μM. 200 ng of human NAMPT enzyme (His-hNAMPT obtained from E. coli expression system) diluted in […] (tris-buffered saline-Polysorbate 20) 1× was added to each well in a volume of 10 μL and the compounds were incubated with the enzyme at room temperature for 20 minutes. After the incubation, 30 μL of master mixture were added to each well. The master mixture contained: 50 mM Tris-HCl, pH 8.0, 12.5 mM MgCl2, 20 μM nicotinamide, 40 μM phosphoribosyl pyrophosphate (PRPP), 20 μM adenosine triphosphate (ATP), 30 μg/mL of alcohol dehydrogenase, 10 μg/mL of NMNAT, 1.5% alcohol, 1 mM dithiothreitol (DTT), 0.02% bovine serum albumin (BSA), 0.01% Tween 20. The reaction was performed at 30° C. for 60 minutes. Fluorescence intensity was measured at an excitation of 340 nm and an emission of 460 nm using a Tecan Infinite M1000 microplate reader. The fluorescence values indicated increase of NADH product.
# Enzyme activity assay was performed in duplicate at each concentration. The fluorescence data was analyzed and compared. In the absence of the compound, the intensity (Ce) in each data set was defined as 100% activity. In the absence of enzyme, the intensity (C0) in each data set was defined as 0% activity. The percent activity in the presence of each compound was calculated according to the following equation: % activity=(C−C0)/(Ce−C0), where C is the fluorescence in the presence of the compound.
# The % activity vs. compound concentrations were then plotted using non-linear regression analysis of Sigmoidal dose-response curve generated with the equation Y=B+(T−B)/1+10^((Log EC50-X)×Hill Slope), where Y is percent activity, B is minimum percent activity, T is maximum percent activity, X is logarithm of compound and Hill Slope=slope factor or Hill coefficient.
# Sequence of human NAMPT enzyme (His-hNAMPT) (P43490 whole entry): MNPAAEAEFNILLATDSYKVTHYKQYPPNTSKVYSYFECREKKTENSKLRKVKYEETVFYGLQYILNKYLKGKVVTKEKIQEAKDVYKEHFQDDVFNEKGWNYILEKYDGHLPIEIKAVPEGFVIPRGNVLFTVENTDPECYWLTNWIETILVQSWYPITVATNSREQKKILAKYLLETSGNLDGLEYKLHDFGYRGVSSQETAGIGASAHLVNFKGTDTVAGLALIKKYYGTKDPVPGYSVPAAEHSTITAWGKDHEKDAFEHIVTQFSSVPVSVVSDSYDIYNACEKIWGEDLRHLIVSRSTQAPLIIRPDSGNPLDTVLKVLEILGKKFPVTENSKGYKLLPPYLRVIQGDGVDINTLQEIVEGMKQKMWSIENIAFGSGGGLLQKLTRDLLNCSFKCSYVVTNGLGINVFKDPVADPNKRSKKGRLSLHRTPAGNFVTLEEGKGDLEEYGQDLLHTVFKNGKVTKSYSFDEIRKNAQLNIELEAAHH
row,SMILES,IC50
1,"CC(C)(C)OC(=O)N1C[C@@H]2[C@@H](CCNC(=O)c3ccc4sccc4c3)[C@@H]2C1 [Example 6, (1R,5S,65s)-tert-butyl 6-(2-(benzo[b]thiophene-5-carboxamido)ethyl)-3-azabicyclo[3.1.0]hexane-3-carboxylate]",0.01 to 0.49 µM
2,"O=C(O)c1cccc(C(=O)N2C[C@@H]3[C@@H](CCNC(=O)c4ccc5nccn5c4)[C@@H]3C2)c1 [Example 181, 3-((1R,5S,6s)-6-(2-(imidazo[1,2-a]pyridine-6-carboxamido)ethyl)-3-azabicyclo[3.1.0]hexane-3-carbonyl)benzoic acid]",1 to 29 µM
3,"CC(C)(C)OC(=O)N1C[C@@H]2[C@H](C1)[C@H]2C(O)CNC(=O)/C=C/c1ccc(N)nc1 (stereo partly drawn) [Example 252, (1R,5S,6r)-tert-butyl 6-(2-((E)-3-(6-aminopyridin-3-yl)acrylamido)-1-hydroxyethyl)-3-azabicyclo[3.1.0]hexane-3-carboxylate]",1 to 29 µM
4,"CC(C)(C)NC(=O)N1C[C@@H]2[C@@H](CCNC(=O)/C=C/c3ccc(N)nc3)[C@@H]2C1 [Example 293, (1R,5S,6s)-6-(2-((E)-3-(6-aminopyridin-3-yl)acrylamido)ethyl)-N-(tert-butyl)-3-azabicyclo[3.1.0]hexane-3-carboxamide]",0.01 to 0.49 µM
5,"CN1CCC(OC(=O)N2C[C@@H]3[C@@H](CCNC(=O)/C=C/c4ccc(N)nc4)[C@@H]3C2)CC1 [Example 52, (1R,5S,6s)-(1-methylpiperidin)-4-yl 6-(2-((E)-3-(6-aminopyridin-3-yl)acrylamido)ethyl)-3-azabicyclo[3.1.0]hexane-3-carboxylate]",0.01 to 0.49 µM
6,"CC1(OC(=O)N2C[C@@H]3[C@@H](CCNC(=O)N4Cc5ccc(F)cc5C4)[C@@H]3C2)COC1 [Example 42, (1R,5S,6s)-3-methyloxetan-3-yl 6-(2-(5-fluoroisoindoline-2-carboxamido)ethyl)-3-azabicyclo[3.1.0]hexane-3-carboxylate]",0.01 to 0.49 µM
7,"Cc1nc(C)c(C(=O)N2C[C@@H]3[C@@H](CCNC(=O)/C=C/c4cccnc4)[C@@H]3C2)o1 [Example 105, (E)-N-(2-((1R,5S,6s)-3-(2,4-dimethyloxazole-5-carbonyl)-3-azabicyclo[3.1.0]hexan-6-yl)ethyl)-3-(pyridin-3-yl)acrylamide]",0.01 to 0.49 µM
8,"CCN(CC)C(=O)N1C[C@@H]2[C@@H](CCNC(=O)/C=C/c3ccc(N)nc3)[C@@H]2C1 [Example 33, (1R,5S,6s)-6-(2-((E)-3-(6-aminopyridin-3-yl)acrylamido)ethyl)-N,N-diethyl-3-azabicyclo[3.1.0]hexane-3-carboxamide]",0.01 to 0.49 µM
9,"CC1(OC(=O)N2C[C@@H]3[C@@H](CCNC(=O)c4nc5ccncc5s4)[C@@H]3C2)COC1 [Example 62, (1R,5S,6s)-3-methyloxetan-3-yl 6-(2-(thiazolo[5,4-c]pyridine-2-carboxamido)ethyl)-3-azabicyclo[3.1.0]hexane-3-carboxylate]",1 to 29 µM
10,"Nc1ccc(/C=C/C(=O)NCC[C@@H]2[C@H]3CN(C(=O)c4cccc(F)c4)C[C@@H]23)cn1 [Example 89, (E)-3-(6-aminopyridin-3-yl)-N-(2-((1R,5S,6s)-3-(3-fluorobenzoyl)-3-azabicyclo[3.1.0]hexan-6-yl)ethyl)acrylamide]",0.01 to 0.49 µM
11,"Cc1ccccc1N1C[C@@H]2[C@@H](CCNC(=O)/C=C/c3cccnc3)[C@@H]2C1 [Example 132, (E)-3-(pyridin-3-yl)-N-(2-((1R,5S,6s)-3-(o-tolyl)-3-azabicyclo[3.1.0]hexan-6-yl)ethyl)acrylamide]",0.01 to 0.49 µM

# Same assay, conditions: [HDB]; read-out: NAMPT IC50 (μM) [HDB]
row,SMILES,IC50
1,"O=C(/C=C/c1cccnc1)NCC[C@@H]1[C@H]2CN(Cc3cc(Cl)cc(Cl)c3)C[C@@H]12 [Example 251, (E)-N-(2-((1R,5S,6s)-3-(3,5-dichlorobenzyl)-3-azabicyclo[3.1.0]hexan-6-yl)ethyl)-3-(pyridin-3-yl)acrylamide]",0.01 to 0.49 µM
2,"O=C(NCC[C@@H]1[C@H]2CN(c3nc(Cl)ncc3F)C[C@@H]12)c1cc2c(nc3sccn32)s1 [Example 220, N-(2-((1R,5S,6s)-3-(2-chloro-5-fluoropyrimidin-4-yl)-3-azabicyclo[3.1.0]hexan-6-yl)ethyl)thieno[2′,3′:4,5]imidazo[2,1-b]thiazole-2-carboxamide]",0.01 to 0.49 µM
3,"O=C(NCC[C@@H]1[C@H]2CN(c3cccc(F)c3)C[C@@H]12)c1cc2ccncc2o1 [Example 197, N-(2-((1R,5S,6s)-3-(3-fluorophenyl)-3-azabicyclo[3.1.0]hexan-6-yl)ethyl)furo[2,3-c]pyridine-2-carboxamide]",0.01 to 0.49 µM
4,"O=C(/C=C/c1cccnc1)NCC[C@@H]1[C@H]2CN(c3ccc4c(c3)C(=O)NC4)C[C@@H]12 [Example 156, (E)-N-(2-((1R,5S,6s)-3-(3-oxoisoindolin-5-yl)-3-azabicyclo[3.1.0]hexan-6-yl)ethyl)-3-(pyridin-3-yl)acrylamide]",0.01 to 0.49 µM
5,"CC(C)(C)Oc1cccc(N2C[C@@H]3[C@@H](CCNC(=O)/C=C/c4cccnc4)[C@@H]3C2)c1 [Example 158, (E)-N-(2-((1R,5S,6s)-3-(3-(tert-butoxy)phenyl)-3-azabicyclo[3.1.0]hexan-6-yl)ethyl)-3-(pyridin-3-yl)acrylamide]",< 0.01 µM
6,"O=C(NCC[C@@H]1[C@H]2CN(c3nc(Cl)ncc3F)C[C@@H]12)N1Cc2cccnc2C1 [Example 227, N-(2-((1R,5S,6s)-3-(2-chloro-5-fluoropyrimidin-4-yl)-3-azabicyclo[3.1.0]hexan-6-yl)ethyl)-5H-pyrrolo[3,4-b]pyridine-6(7H)-carboxamide]",0.01 to 0.49 µM
7,"O=C(/C=C/c1cccnc1)NCC[C@@]1(F)[C@@H]2CN(c3nc(Cl)ncc3F)C[C@@H]21 [Example 292, (E)-N-(2-((1R,5S,6r)-3-(2-chloro-5-fluoropyrimidin-4-yl)-6-fluoro-3-azabicyclo[3.1.0]hexan-6-yl)ethyl)-3-(pyridin-3-yl)acrylamide]",0.01 to 0.49 µM
8,"O=C(NCC[C@@H]1[C@H]2CN(c3ccc(F)cc3)C[C@@H]12)c1cc2ccncc2o1 [Example 196, N-(2-((1R,5S,6s)-3-(4-fluorophenyl)-3-azabicyclo[3.1.0]hexan-6-yl)ethyl)furo[2,3-c]pyridine-2-carboxamide]",0.01 to 0.49 µM
9,"COc1ncc(F)c(N2C[C@@H]3[C@@H](CCNC(=O)/C=C/c4cnccc4F)[C@@H]3C2)n1 [Example 332, (E)-N-(2-((1R,5S,6s)-3-(5-fluoro-2-methoxypyrimidin-4-yl)-3-azabicyclo[3.1.0]hexan-6-yl)ethyl)-3-(4-fluoropyridin-3-yl)acrylamide]",< 0.01 µM
10,"O=C(/C=C/c1cccnc1)NCC[C@@H]1[C@H]2CN(c3nc(OC4CCOCC4)ncc3F)C[C@@H]12 [Example 305, (E)-N-(2-((1R,5S,6s)-3-(5-fluoro-2-((tetrahydro-2H-pyran-4-yl)oxy)pyrimidin-4-yl)-3-azabicyclo[3.1.0]hexan-6-yl)ethyl)-3-(pyridin-3-yl)acrylamide]",< 0.01 µM
11,"O=C(NCC[C@@H]1[C@H]2CN(c3ncccn3)C[C@@H]12)c1cc2cnccc2[nH]1 [Example 194, N-(2-((1R,5S,6s)-3-(pyrimidin-2-yl)-3-azabicyclo[3.1.0]hexan-6-yl)ethyl)-1H-pyrrolo[3,2-c]pyridine-2-carboxamide]",0.01 to 0.49 µM
12,"NC(=O)c1ccnc(N2C[C@@H]3[C@@H](CCNC(=O)/C=C/c4cccnc4)[C@@H]3C2)n1 [Example 171, 2-((1R,5S,6s)-6-(2-((E)-3-(pyridin-3-yl)acrylamido)ethyl)-3-azabicyclo[3.1.0]hexan-3-yl)pyrimidine-4-carboxamide]",< 0.01 µM
13,"COc1cc(N2C[C@@H]3[C@@H](CCNC(=O)/C=C/c4ccc(N)nc4)[C@@H]3C2)ccn1 [Example 339, (E)-3-(6-aminopyridin-3-yl)-N-(2-((1R,5S,6s)-3-(2-methoxypyridin-4-yl)-3-azabicyclo[3.1.0]hexan-6-yl)ethyl)acrylamide]",0.01 to 0.49 µM
14,"O=C(/C=C/c1cccnc1)NCC[C@@H]1[C@H]2CN(c3nc(-c4ncco4)ncc3F)C[C@@H]12 [Example 336, (E)-N-(2-((1R,5S,6s)-3-(5-fluoro-2-(oxazol-2-yl)pyrimidin-4-yl)-3-azabicyclo[3.1.0]hexan-6-yl)ethyl)-3-(pyridin-3-yl)acrylamide]",< 0.01 µM
15,"O=C(/C=C/c1cccnc1)NCC[C@@H]1[C@H]2CN(C(c3ccccc3)C(F)(F)F)C[C@@H]12 (stereo partly drawn) [Example 296, (E)-3-(pyridin-3-yl)-N-(2-((1R,5S,6s)-3-(2,2,2-trifluoro-1-phenylethyl)-3-azabicyclo[3.1.0]hexan-6-yl)ethyl)acrylamide]",< 0.01 µM
